# Results published in PubChem BioAssay (NCI).
# Several values for one entry are separate records, joined by “and”; a condition that tells them apart may be missing. Equal values may be shown once.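 Values below derive from 48-hour exposures of cells grown in 96-well plates, with endpoints linearly interpolated between the two concentrations bracketing the appropriate inhibition level. GI50 marks 50% less growth. TGI denotes the concentration required for complete inhibition of growth.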
# Tested on: BT-549 breast
# Assay: NCI tumour cell line growth inhibition, 48 h
row,SMILES,TGI [µM]
1,CC[C@@]1(O)C(=O)OCc2c1cc1n(c2=O)Cc2c-1nc1ccccc1c2/C=N\NC(=O)CN,> 95.4
2,O=C(NNC(=O)c1ccccc1SSc1ccccc1C(=O)NNC(=O)c1ccccc1S)c1ccccc1S,74.8
3,CCOC(=O)C(NC(C)=O)(Nc1ccc(F)cc1)C(F)(F)F (configuration not stated),> 100
4,CCOc1cc2c(cc1O)/C(=N\OC)C[C@@H]1[C@@H]2CC[C@]2(C)[C@@H](O)CC[C@@H]12,40.9
5,O=C1/C(=C/c2ccc(O)cc2)CC/C1=C\c1ccc(O)cc1,> 100
6,COC(=O)[C@H]1CO[C@@H](C(C)(C)C)N1C(=O)N1C=CC(=O)C[C@@H]1C,> 100
7,Clc1ccc(/C=C/c2nc3ccccc3s2)cc1Cl,> 100
8,C(/c1ccco1)=c1/nc(-c2ccccc2)n2c1nc1ccccc12,94.4
9,COC(=O)C1CCC(=O)N1C(c1ccccc1)c1ccc(OC)c(OC)c1 (configuration not stated),> 100
10,Oc1cccc2c(Cl)ccnc12,> 100
11,Cc1cccc(/C=N/NC(=S)Nc2ccccc2)n1,75
12,NC(=O)C(c1ccccc1)N1OC2C(=O)N(c3ccccc3)C(=O)C2C1c1c2ccccc2c(Cl)c2ccccc12 (configuration not stated),> 100
13,COc1ccc(/C=C2\CCC(C)C3=C2NC(=S)NC3c2ccc(OC)c(OC)c2)cc1OC (configuration not stated),26.2
14,C=C(Br)C(C)(Cl)CCC(Br)C(C)(C)Cl (configuration not stated),> 100
15,Cc1c2cnccc2c(C)c2c1c1ccccc1n2CCCN,2.85
16,O=C(CCC(=O)c1ccc(Cl)cc1)NO,> 100
17,COc1c(C)c(C/C=C(\C)CCCCO[Si](c2ccccc2)(c2ccccc2)C(C)(C)C)c(OC)c(OC)c1OC,> 46.4
18,CN1CCN([C@H]2C[C@H]3[C@@H]4CC=C5C[C@@H](O)CC[C@]5(C)[C@H]4CC[C@]3(C)C2=O)CC1,> 100
19,COc1ccc(C2c3cc4c(cc3OC(NNS(=O)(=O)c3ccc(C)cc3)C2C)OCO4)cc1 (configuration not stated),> 100
20,C[C@@]12C[C@@H](c3ccccc3O1)N1CCCCSC1=N2,> 100
21,CCOC(=O)Nn1c(C)nnc1-c1ccccc1,> 100
22,c1ccc(N=C2SC3=Nc4cccc5cccc(c45)N3C2=Nc2ccccc2)cc1,> 100
23,Cc1cc(O)c2c(=O)c3ccccc3[nH]c2c1,85.3
24,N=c1n(C(=O)N2CCCC2)c2cc(Cl)ccc2n1C1=NCCN1,> 100
25,Nc1cccc2cc(Cl)cnc12,> 100
26,CC1=C(C)[C@@]2(C)O[C@@]2(C)O[C@@]2(C)O[C@@]12C,> 100
27,C=C1c2nc3ccccc3n2C=C(c2ccccc2)N1c1ccc([N+](=O)[O-])cc1,46.4

# Tested on: COLO 205 colon
# Assay: NCI tumour cell line growth inhibition, 48 h
SMILES,TGI,GI50 [µM]
CC[C@@]1(O)C(=O)OCc2c1cc1n(c2=O)Cc2c-1nc1ccccc1c2/C=N\NC(=O)CN,> 100 µM,–
O=C(NNC(=O)c1ccccc1SSc1ccccc1C(=O)NNC(=O)c1ccccc1S)c1ccccc1S,> 100 µM,–
CCOC(=O)C(NC(C)=O)(Nc1ccc(F)cc1)C(F)(F)F (configuration not stated),> 100 µM,–
CCOc1cc2c(cc1O)/C(=N\OC)C[C@@H]1[C@@H]2CC[C@]2(C)[C@@H](O)CC[C@@H]12,40.8 µM,–
O=C1/C(=C/c2ccc(O)cc2)CC/C1=C\c1ccc(O)cc1,> 100 µM,–
COC(=O)[C@H]1CO[C@@H](C(C)(C)C)N1C(=O)N1C=CC(=O)C[C@@H]1C,> 100 µM,–
Clc1ccc(/C=C/c2nc3ccccc3s2)cc1Cl,> 100 µM,–
C(/c1ccco1)=c1/nc(-c2ccccc2)n2c1nc1ccccc12,> 100 µM,–
COC(=O)C1CCC(=O)N1C(c1ccccc1)c1ccc(OC)c(OC)c1 (configuration not stated),> 100 µM,–
Oc1cccc2c(Cl)ccnc12,32.6 µM,–
NC(=O)C(c1ccccc1)N1OC2C(=O)N(c3ccccc3)C(=O)C2C1c1c2ccccc2c(Cl)c2ccccc12 (configuration not stated),> 100 µM,–
COc1ccc(/C=C2\CCC(C)C3=C2NC(=S)NC3c2ccc(OC)c(OC)c2)cc1OC (configuration not stated),24.7 µM,–
C=C(Br)C(C)(Cl)CCC(Br)C(C)(C)Cl (configuration not stated),64.6 µM,–
Cc1c2cnccc2c(C)c2c1c1ccccc1n2CCCN,0.986 µM and 0.629 µM,0.18
O=C(CCC(=O)c1ccc(Cl)cc1)NO,> 100 µM,–
COc1c(C)c(C/C=C(\C)CCCCO[Si](c2ccccc2)(c2ccccc2)C(C)(C)C)c(OC)c(OC)c1OC,39.9 µM,–
CN1CCN([C@H]2C[C@H]3[C@@H]4CC=C5C[C@@H](O)CC[C@]5(C)[C@H]4CC[C@]3(C)C2=O)CC1,> 100 µM,–
COc1ccc(C2c3cc4c(cc3OC(NNS(=O)(=O)c3ccc(C)cc3)C2C)OCO4)cc1 (configuration not stated),> 100 µM,–
C[C@@]12C[C@@H](c3ccccc3O1)N1CCCCSC1=N2,> 100 µM,–
CCOC(=O)Nn1c(C)nnc1-c1ccccc1,> 100 µM,–
c1ccc(N=C2SC3=Nc4cccc5cccc(c45)N3C2=Nc2ccccc2)cc1,> 100 µM,–
Cc1cc(O)c2c(=O)c3ccccc3[nH]c2c1,42 µM,–
N=c1n(C(=O)N2CCCC2)c2cc(Cl)ccc2n1C1=NCCN1,> 100 µM,–
Nc1cccc2cc(Cl)cnc12,> 100 µM,–
CC1=C(C)[C@@]2(C)O[C@@]2(C)O[C@@]2(C)O[C@@]12C,> 100 µM,–
C=C1c2nc3ccccc3n2C=C(c2ccccc2)N1c1ccc([N+](=O)[O-])cc1,48.4 µM,–

# Tested on: HCT-15 colon
# Assay: NCI tumour cell line growth inhibition, 48 h
row,SMILES,TGI [µM]
1,CC[C@@]1(O)C(=O)OCc2c1cc1n(c2=O)Cc2c-1nc1ccccc1c2/C=N\NC(=O)CN,> 100
2,O=C(NNC(=O)c1ccccc1SSc1ccccc1C(=O)NNC(=O)c1ccccc1S)c1ccccc1S,61.5
3,CCOC(=O)C(NC(C)=O)(Nc1ccc(F)cc1)C(F)(F)F (configuration not stated),> 100
4,CCOc1cc2c(cc1O)/C(=N\OC)C[C@@H]1[C@@H]2CC[C@]2(C)[C@@H](O)CC[C@@H]12,16.1
5,O=C1/C(=C/c2ccc(O)cc2)CC/C1=C\c1ccc(O)cc1,> 100
6,Clc1ccc(/C=C/c2nc3ccccc3s2)cc1Cl,> 100
7,C(/c1ccco1)=c1/nc(-c2ccccc2)n2c1nc1ccccc12,> 100
8,COC(=O)C1CCC(=O)N1C(c1ccccc1)c1ccc(OC)c(OC)c1 (configuration not stated),> 100
9,Oc1cccc2c(Cl)ccnc12,29.7
10,Cc1cccc(/C=N/NC(=S)Nc2ccccc2)n1,> 38.4
11,NC(=O)C(c1ccccc1)N1OC2C(=O)N(c3ccccc3)C(=O)C2C1c1c2ccccc2c(Cl)c2ccccc12 (configuration not stated),> 100
12,COc1ccc(/C=C2\CCC(C)C3=C2NC(=S)NC3c2ccc(OC)c(OC)c2)cc1OC (configuration not stated),> 31.6
13,C=C(Br)C(C)(Cl)CCC(Br)C(C)(C)Cl (configuration not stated),> 100
